According to US10076505B2, “Inhalation formulations of Treprostinil” (priority 2003, dated 2018):

Assays:
[1] = test system: human alveolar macrophages; details: cited from earlier work
sheep = assay: Intravenous and aerosolized UT-15 dose response during U44069 induced pulmonary hypertension (Example V); type: in vivo; details: for left atrial pressure: all three delivery rates
Text: Sheep were used as the animal model of choice for these experiments for a number of reasons. First is the docile nature of sheep. They will stand quietly in metabolic cages without having to utilize tranquilizing drugs, which have the potential to complicate experimental results. Second, sheep are large enough to allow direct measurement of CO, PPA, PLA, PCV, and PSYS. Sheep are also large enough to allow direct aerosolization of substances into the lung via trachoestomy thereby preventing swallowing of drugs and thus eliminating a possible secondary route of administration of UT-15. Third, sheep can tolerate a great amount of instrumentation with little or no discomfort. Fourth, sheep have been utilized for several years as an animal model of pulmonary arterial hypertension and thus, there is a great amount of historical data with which to compare the results. […] The reasons for using U44069 are that it is a very potent pulmonary vasoconstrictor, its characteristics are very similar to endogenously formed thromboxane A2, and it can be titrated to induce the desired degree of pulmonary vasoconstriction. U44069 was mixed with sterile normal saline immediately prior to being used and was protected from light by wrapping the solution with aluminum foil. The concentration of U44069 was adjusted such that a minimal flow rate of 0.8 ml per min was being infused into the sheep. This was done because more concentrated U44069 would have to be infused at very low rates and often causes “pulses” of U44069 due to the infusion characteristics of roller pumps. The U44069 pulses cause vasoconstriction “spikes” and thus would create induce a non-steady-state. Six yearling sheep (3 males, 3 females; 21-37 kg) were fasted 18-24 hours and initially anesthetized with a short acting barbiturate (thiopental) to allow intubation of the sheep. Halothane gas anesthesia (1.5-2.5%) was then used for the surgical procedures. Via a left thoracotomy, a Transonic blood flow probe was placed around the main pulmonary artery, silastic catheters placed in the main pulmonary artery and left atrium. After approximately 7 days the sheep were reanesthetized and the left carotid artery cannulated, a Cordis Introducer Sheath inserted in the left jugular vein, and a tracheotomy made. The sheep were allowed to recover for another 3-5 days prior to experimentation. These sheep were used to allow measurement of pulmonary arterial pressure (PPA), left atrial pressure (PLA), central venous pressure (PCV), systemic arterial pressure (PSYS), heart rate (HR), and cardiac output (CO) after baseline measurements were made for a minimum of 30 minutes. Two separate experiments were conducted to determine the dose response effects of intravenously infused UT-15 and aerosolized UT-15 during U44069 induced pulmonary hypertension. After a 30 minute baseline was established, U44069 was infused intravenously at a rate of 1 ng per kg per min. For the intravenous administration of UT-15 and after allowing the sheep to achieve a steady-state for 30-60 minutes, a dose-response to intravenous UT-15 was similar to that set forth in Example IV. For the aerosolized administration of UT-15 and after allowing the sheep to achieve a steady-state for 30-60 minutes, a dose-response to intravenous UT-15 was similar to that set forth in Example IV. In each experimental protocol, UT-15 was administered to three sheep for 30 minutes and to the other three sheep for 60 minutes.

digital ischemic lesions = assay: Subcutaneous Treprostinil in scleroderma patients with digital ischemic lesions (Example VII); type: in vivo, human; details: continuous subcutaneous infusion, 12 weeks, increasing dose
Protocol: Scleroderma patients having at least one lesion (i.e., small sore or area of tissue gangrene) present on a hand or finger are dosed with increasing amounts of Treprostinil over 12 weeks. The medication is delivered by a small pump that is connected to a catheter placed under the skin. In this manner, increasing dosages of Treprostinil are administered to patients by chronic continuous subcutaneous infusion. Specifically, a 1.0 mg/mL formulation of Treprostinil sodium) (REMODULIN®) is administered subcutaneously using a standard micro-infusion, positive-pressure infusion pump designed for subcutaneous drug delivery (Mini-Med). Patients receive an initial dose of 2.5 ng/kg/min of study drug. […] After that, the dose is raised by 2.50 ng/kg/min each week until not tolerated or once a target dose is reached. Dosing is increased weekly unless not tolerated by the patient. […] One example of a target dose is 15 ng/kg/min. The minimum dose is usually not less than 0.625 ng/kg/min.

[2] = test system: large blood vessels of the lower limbs; details: patients with severe intermittent claudication; cited from earlier work
[3] = during U44069 infusion, aerosol
[4] = during U44069 infusion, aerosolized
[5] = during U44069 infusion, intravascular
[6] = during U44069 infusion, intravenous

## CCCCC[C@H](O)CC[C@@H]1[C@H]2Cc3cccc(OCC(=O)O)c3C[C@H]2C[C@H]1O [UT-15, 9-deoxy-2′,9-alpha-methano-3-oxa-4,5,6-trinor-3,7-(1′,3′-interphenylene)-13,14-dihydro-prostaglandin F1]
[1]
  inflammatory cytokine (tumor necrosis factor-α, interleukin-1β, interleukin-6, GM-CSF) secretion and gene expression: inhibits
sheep; [3]
  cardiac output: no effect
  time at which UT-15 began to attenuate the increase in PVR: 4 to 5 min
  left atrial pressure: increased above baseline
sheep; [4]
  heart rate: no effect
  off response (PVR): 43 min
  systemic arterial pressure: no statistical differences
sheep; during U44069 infusion, aerosolized, 500 and 1000 ng per kg per min
  PPA: back to normal values
sheep; during U44069 infusion, aerosolized, any of the three delivery rates
  PVR relative to baseline PVR: no significant difference
sheep; [5]
  PPA relative to U44069 value: decrease significantly
  pulmonary vascular driving pressure (PPA-PLA): unchanged
sheep; [6]
  off response (PVR): 12 min
  systemic arterial pressure: no statistical differences
  time at which UT-15 began to attenuate the increase in PVR: 4 to 5 min
sheep; during U44069 infusion, intravenous, 500 and 1000 ng per kg per min
  central venous pressure: different from the U44069 values
sheep; during U44069 infusion, intravenous, 500 and 1000 ng per kg per min different from U44069 values
  heart rate: increase above the values during U44069 conditions
sheep; during U44069 infusion, intravenous, significant at 500 and 100 ng per kg per min
  cardiac output: dose-response increase
sheep; during U44069 infusion, intravenously infused
  left atrial pressure: significant decrease from the U44069 value
sheep; intravenously infused, 500 and 1000 ng per kg per min
  U44069-induced increase in PVR: significantly attenuated
Digital ischemic lesions
  lesions present before treatment: reduction in the number, size and severity
  new lesions associated with scleroderma: fewer new lesions
[2]
  blood flow in large blood vessels of the lower limbs: increase in blood flow
